pKi: −log10 of the molar value.
Target: Beta-secretase 1 (Homo sapiens, UniProt P56817)
Assay: Inhibition of human recombinant BACE1 by FRET assay

Chain of Beta-secretase 1 (P56817 whole entry): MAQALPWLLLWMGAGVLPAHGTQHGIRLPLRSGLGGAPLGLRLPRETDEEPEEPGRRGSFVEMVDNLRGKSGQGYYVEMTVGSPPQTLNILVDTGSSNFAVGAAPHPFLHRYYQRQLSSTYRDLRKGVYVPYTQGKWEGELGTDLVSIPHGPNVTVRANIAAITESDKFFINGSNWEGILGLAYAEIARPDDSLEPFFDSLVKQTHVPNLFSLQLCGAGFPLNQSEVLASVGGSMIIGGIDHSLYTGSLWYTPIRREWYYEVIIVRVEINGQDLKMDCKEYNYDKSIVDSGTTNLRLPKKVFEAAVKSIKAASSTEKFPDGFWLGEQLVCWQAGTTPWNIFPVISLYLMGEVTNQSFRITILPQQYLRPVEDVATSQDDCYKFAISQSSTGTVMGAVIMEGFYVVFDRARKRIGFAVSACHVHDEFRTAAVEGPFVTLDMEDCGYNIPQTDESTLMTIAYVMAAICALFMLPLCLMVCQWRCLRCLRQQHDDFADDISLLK

SMILES | pKi
O=C(Nc1ccncc1)c1ccc2c(c1)Nc1ccccc1NC2=O | 6.53
O=C(Nc1nc(-c2ccc(F)cc2)c[nH]1)c1ccc2c(c1)Nc1ccccc1NC2=O | 6.53
C[C@@H](NC(=O)c1cc(NS(C)(=O)=O)cc(C(=O)N[C@@H](Cc2ccccc2)[C@@H](O)CNC2CC2)c1)c1ccc(F)cc1 | 8.00
O=C(Nc1nc(-c2ccncc2)c[nH]1)c1ccc2c(c1)Nc1ccccc1NC2=O | 6.46
O=C(Nc1nc2ccncc2[nH]1)c1ccc2c(c1)Nc1ccccc1NC2=O | 6.51
O=C(Nc1ccc(F)cc1)c1ccc2c(c1)Nc1ccccc1NC2=O | 6.68
O=C(Nc1nc2ccc(F)cc2[nH]1)c1ccc2c(c1)Nc1ccccc1NC2=O | 6.61

From ChEMBL document CHEMBL1154184, “Rational design and synthesis of potent dibenzazepine motifs as beta-secretase inhibitors” (J Med Chem, 2009)
